Reference: the kinase profiling compilation of Christmann-Franck et al. (2016)

Assays:
Assay in all cases: KINOMEscan competition binding
[1] = target: PKN2 (human) (UniProt Q16513); conditions: compound 1.0 µM
[2] = target: PRKX (human) (UniProt P51817); conditions: compound 1.0 µM
[3] = target: CLK1 (human) (UniProt P49759); conditions: compound 1.0 µM
[4] = target: PAK4 (human) (UniProt O96013); conditions: compound 1.0 µM
[5] = target: CSNK2A2 (human) (UniProt P19784); conditions: compound 1.0 µM
[6] = target: MAPK7 (human) (UniProt Q13164); conditions: compound 1.0 µM
[7] = target: DYRK2 (human) (UniProt Q92630); conditions: compound 1.0 µM
[8] = tested on: EGFR (human), P00533 [P753S; 747-752 del]; conditions: compound 1.0 µM
[9] = target: ULK3 (human) (UniProt Q6PHR2); conditions: compound 1.0 µM
[10] = target: AURKB (human) (UniProt Q96GD4); conditions: compound 1.0 µM
[11] = target: EPHB4 (human) (UniProt P54760); conditions: compound 1.0 µM
[12] = target: PKN1 (human) (UniProt Q16512); conditions: compound 1.0 µM
[13] = target: FLT3 (human) (UniProt P36888); conditions: compound 1.0 µM
[14] = target: TEK (human) (UniProt Q02763); conditions: compound 1.0 µM
[15] = target: IRAK4 (human) (UniProt Q9NWZ3); conditions: compound 1.0 µM
[16] = target: STK32B (human) (UniProt Q9NY57); conditions: compound 1.0 µM
[17] = tested on: EGFR (human), P00533 [G719S]; conditions: compound 1.0 µM
[18] = target: MYLK4 (human) (UniProt Q86YV6)
[19] = tested on: PIK3CA (human), P42336 [E545A]; conditions: compound 1.0 µM
[20] = target: CAMK1G (human) (UniProt Q96NX5); conditions: compound 1.0 µM
[21] = target: NTRK2 (human) (UniProt Q16620); conditions: compound 1.0 µM
[22] = target: MUSK (human) (UniProt O15146); conditions: compound 1.0 µM
[23] = target: CAMK2D (human) (UniProt Q13557); conditions: compound 1.0 µM
[24] = target: BRAF (human) (UniProt P15056); conditions: compound 1.0 µM
[25] = tested on: ABL1 (human), P00519 [E255K]; conditions: compound 1.0 µM
[26] = target: MAPK8 (human) (UniProt P45983); conditions: compound 1.0 µM
[27] = target: RPS6KA1 KD1 (human) (UniProt Q15418); conditions: compound 1.0 µM
[28] = target: WEE2 (human) (UniProt P0C1S8); conditions: compound 1.0 µM
[29] = target: PRKCI (human) (UniProt P41743); conditions: compound 1.0 µM
[30] = target: YSK4 (human) (UniProt Q56UN5); conditions: compound 1.0 µM
[31] = target: MYLK2 (human) (UniProt Q9H1R3); conditions: compound 1.0 µM
[32] = target: CDKL2 (human) (UniProt Q92772); conditions: compound 1.0 µM
[33] = target: CSNK1G1 (human) (UniProt Q9HCP0); conditions: compound 1.0 µM
[34] = target: OXSR1 (human) (UniProt O95747); conditions: compound 1.0 µM
[35] = target: STK35 (human) (UniProt Q8TDR2); conditions: compound 1.0 µM
[36] = target: FRK (human) (UniProt P42685); conditions: compound 1.0 µM
[37] = target: STK36 (human) (UniProt Q9NRP7); conditions: compound 1.0 µM
[38] = target: LYN (human) (UniProt P07948); conditions: compound 1.0 µM
[39] = target: CLK2 (human) (UniProt P49760); conditions: compound 1.0 µM
[40] = target: STK24 (human) (UniProt Q9Y6E0); conditions: compound 1.0 µM
[41] = target: ABL2 (human) (UniProt P42684); conditions: compound 1.0 µM
[42] = target: AKT1 (human) (UniProt P31749); conditions: compound 1.0 µM
[43] = target: EPHA8 (human) (UniProt P29322); conditions: compound 1.0 µM

Chain of MYLK4 (human) (Q86YV6 whole entry, looked up): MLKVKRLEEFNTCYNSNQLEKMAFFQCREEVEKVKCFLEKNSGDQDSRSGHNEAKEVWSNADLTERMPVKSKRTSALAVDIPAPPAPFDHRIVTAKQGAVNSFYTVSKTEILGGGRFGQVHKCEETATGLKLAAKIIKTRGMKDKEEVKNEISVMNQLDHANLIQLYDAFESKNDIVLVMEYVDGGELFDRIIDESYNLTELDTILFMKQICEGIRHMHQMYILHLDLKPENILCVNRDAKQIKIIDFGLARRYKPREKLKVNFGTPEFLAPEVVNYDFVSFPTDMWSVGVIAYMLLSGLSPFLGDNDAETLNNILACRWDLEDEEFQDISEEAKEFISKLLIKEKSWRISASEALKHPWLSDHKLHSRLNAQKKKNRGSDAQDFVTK
Chain of STK32B (human) (Q9NY57 whole entry, looked up): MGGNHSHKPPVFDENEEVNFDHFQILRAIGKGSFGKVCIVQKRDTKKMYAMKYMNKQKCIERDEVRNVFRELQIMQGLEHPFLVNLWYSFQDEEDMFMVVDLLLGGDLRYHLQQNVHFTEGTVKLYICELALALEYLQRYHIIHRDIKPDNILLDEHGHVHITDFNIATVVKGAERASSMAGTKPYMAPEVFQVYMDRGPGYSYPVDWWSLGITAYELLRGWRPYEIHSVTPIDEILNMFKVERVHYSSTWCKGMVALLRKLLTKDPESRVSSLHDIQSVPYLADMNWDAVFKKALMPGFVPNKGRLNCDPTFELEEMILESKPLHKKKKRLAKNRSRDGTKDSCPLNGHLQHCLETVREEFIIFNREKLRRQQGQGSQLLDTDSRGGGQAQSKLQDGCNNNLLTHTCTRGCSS
Chain of AKT1 (human) (P31749 whole entry, looked up): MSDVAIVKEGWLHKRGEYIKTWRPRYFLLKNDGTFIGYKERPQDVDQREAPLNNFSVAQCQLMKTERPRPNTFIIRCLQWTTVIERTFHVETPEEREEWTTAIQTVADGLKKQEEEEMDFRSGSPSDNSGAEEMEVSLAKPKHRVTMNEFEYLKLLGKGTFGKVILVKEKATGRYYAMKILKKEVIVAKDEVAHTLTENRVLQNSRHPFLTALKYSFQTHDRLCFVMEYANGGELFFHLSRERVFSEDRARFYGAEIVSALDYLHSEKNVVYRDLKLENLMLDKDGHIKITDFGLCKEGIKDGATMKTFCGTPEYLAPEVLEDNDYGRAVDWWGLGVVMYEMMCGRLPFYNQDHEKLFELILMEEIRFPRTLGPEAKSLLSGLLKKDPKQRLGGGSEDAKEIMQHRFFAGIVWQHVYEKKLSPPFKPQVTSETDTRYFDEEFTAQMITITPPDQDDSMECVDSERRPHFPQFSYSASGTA
Chain of AURKB (human) (Q96GD4 whole entry, looked up): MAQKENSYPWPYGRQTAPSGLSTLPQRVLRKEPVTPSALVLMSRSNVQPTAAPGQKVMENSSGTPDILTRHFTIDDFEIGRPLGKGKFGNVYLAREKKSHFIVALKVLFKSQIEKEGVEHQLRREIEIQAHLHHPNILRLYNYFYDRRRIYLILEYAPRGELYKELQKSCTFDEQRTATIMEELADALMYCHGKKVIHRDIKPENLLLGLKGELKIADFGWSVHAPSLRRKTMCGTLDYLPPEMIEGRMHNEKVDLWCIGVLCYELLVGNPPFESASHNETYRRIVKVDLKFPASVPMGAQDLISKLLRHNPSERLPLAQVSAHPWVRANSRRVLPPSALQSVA
Chain of NTRK2 (human) (Q16620 whole entry, looked up): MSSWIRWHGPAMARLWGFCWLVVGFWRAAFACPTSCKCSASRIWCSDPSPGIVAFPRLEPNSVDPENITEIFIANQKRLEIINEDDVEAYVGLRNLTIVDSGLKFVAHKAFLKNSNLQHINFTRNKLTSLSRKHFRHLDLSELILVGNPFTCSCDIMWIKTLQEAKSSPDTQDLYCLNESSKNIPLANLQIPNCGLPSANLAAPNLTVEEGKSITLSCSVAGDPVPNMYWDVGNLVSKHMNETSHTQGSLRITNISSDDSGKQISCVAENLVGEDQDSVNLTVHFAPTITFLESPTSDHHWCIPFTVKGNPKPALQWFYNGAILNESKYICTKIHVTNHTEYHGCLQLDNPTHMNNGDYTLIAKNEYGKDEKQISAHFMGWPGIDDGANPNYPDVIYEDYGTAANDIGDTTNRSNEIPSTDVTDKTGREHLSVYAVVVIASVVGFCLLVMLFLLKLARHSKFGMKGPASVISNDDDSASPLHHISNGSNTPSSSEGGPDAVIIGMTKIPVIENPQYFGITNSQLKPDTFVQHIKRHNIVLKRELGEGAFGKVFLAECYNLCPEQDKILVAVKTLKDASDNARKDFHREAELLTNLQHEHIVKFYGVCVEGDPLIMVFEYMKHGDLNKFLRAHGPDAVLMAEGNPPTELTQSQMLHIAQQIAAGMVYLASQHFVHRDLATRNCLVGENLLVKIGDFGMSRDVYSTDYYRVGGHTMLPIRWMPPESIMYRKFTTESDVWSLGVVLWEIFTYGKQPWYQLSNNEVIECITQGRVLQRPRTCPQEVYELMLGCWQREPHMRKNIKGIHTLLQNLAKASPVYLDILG
Chain of WEE2 (human) (P0C1S8 whole entry, looked up): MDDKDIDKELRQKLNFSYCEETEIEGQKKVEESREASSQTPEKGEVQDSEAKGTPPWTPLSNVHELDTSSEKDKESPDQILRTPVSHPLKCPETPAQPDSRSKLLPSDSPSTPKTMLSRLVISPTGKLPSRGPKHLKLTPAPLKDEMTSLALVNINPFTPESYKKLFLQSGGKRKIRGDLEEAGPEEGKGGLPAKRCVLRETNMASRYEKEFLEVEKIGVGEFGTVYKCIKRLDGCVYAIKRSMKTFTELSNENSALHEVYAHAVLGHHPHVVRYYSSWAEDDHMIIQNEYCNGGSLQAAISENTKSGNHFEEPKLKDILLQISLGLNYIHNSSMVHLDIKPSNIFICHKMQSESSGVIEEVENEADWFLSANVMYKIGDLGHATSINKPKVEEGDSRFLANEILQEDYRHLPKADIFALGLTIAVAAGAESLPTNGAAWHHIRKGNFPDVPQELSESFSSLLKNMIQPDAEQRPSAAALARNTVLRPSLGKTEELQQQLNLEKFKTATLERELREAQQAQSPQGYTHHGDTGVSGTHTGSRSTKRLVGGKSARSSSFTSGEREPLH
Chain of LYN (human) (P07948 whole entry, looked up): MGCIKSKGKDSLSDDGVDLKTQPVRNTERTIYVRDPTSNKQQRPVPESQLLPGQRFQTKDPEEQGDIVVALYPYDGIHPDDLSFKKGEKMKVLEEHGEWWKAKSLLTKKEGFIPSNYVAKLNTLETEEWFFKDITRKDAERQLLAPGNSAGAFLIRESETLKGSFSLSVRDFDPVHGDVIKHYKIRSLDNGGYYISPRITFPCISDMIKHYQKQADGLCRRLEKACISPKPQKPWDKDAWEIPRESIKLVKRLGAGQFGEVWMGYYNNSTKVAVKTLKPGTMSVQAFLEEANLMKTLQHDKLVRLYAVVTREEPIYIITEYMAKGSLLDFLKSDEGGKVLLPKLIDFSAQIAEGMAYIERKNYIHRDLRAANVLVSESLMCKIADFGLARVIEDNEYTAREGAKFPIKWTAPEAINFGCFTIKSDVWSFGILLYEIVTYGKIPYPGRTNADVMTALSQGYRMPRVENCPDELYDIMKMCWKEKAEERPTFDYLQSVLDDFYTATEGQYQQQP
Chain of MUSK (human) (O15146 whole entry, looked up): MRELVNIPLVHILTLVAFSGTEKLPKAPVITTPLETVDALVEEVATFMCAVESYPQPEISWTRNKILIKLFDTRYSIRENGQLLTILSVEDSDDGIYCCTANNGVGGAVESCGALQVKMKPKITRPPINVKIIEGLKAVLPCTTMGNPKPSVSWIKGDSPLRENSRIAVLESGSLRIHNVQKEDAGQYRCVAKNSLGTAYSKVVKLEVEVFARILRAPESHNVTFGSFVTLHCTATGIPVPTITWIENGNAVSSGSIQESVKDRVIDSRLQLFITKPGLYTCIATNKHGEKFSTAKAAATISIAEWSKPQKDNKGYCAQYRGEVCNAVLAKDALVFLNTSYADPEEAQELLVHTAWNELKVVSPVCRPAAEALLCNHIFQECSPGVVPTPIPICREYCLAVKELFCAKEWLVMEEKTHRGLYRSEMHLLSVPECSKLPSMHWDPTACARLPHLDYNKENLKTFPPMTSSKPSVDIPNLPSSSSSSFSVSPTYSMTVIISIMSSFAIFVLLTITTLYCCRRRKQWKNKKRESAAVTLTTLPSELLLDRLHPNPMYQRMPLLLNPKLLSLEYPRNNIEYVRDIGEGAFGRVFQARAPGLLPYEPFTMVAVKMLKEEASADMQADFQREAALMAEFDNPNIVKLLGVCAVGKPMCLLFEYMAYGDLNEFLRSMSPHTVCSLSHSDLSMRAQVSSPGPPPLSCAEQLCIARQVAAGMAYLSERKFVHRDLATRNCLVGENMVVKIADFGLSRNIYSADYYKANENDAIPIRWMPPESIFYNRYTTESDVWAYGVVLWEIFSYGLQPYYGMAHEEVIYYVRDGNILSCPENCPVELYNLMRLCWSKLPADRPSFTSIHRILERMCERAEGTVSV
Chain of PRKCI (human) (P41743 whole entry, looked up): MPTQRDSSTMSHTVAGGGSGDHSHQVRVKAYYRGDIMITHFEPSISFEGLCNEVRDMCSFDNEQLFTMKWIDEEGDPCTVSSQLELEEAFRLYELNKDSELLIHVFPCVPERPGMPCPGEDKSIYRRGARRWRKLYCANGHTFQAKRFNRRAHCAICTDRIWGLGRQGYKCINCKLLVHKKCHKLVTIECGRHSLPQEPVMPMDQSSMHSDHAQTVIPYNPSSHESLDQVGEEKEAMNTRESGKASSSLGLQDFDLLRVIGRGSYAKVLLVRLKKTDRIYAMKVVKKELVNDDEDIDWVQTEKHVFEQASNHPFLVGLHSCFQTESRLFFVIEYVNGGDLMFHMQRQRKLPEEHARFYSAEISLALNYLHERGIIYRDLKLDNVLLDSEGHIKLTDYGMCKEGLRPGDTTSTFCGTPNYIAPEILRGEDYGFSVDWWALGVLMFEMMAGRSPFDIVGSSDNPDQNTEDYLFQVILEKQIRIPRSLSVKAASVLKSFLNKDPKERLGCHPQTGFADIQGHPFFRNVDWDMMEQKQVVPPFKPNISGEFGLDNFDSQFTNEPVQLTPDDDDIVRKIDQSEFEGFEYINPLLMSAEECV

Cc1cc(NC(=O)c2cccc(NC(=O)/C=C/CN(C)C)c2)ccc1Nc1nccc(-c2cccnc2)n1 showed a kinase still bound, per cent of control [1] of 58%, a kinase still bound, per cent of control [2] of 0% and a kinase still bound, per cent of control [3] of 100%. For the same compound, the kinase still bound, per cent of control [4] was 100%, the kinase still bound, per cent of control [5] was 39% and the kinase still bound, per cent of control [6] was 100%. For the same compound, the kinase still bound, per cent of control [7] was 20%, the kinase still bound, per cent of control [8] was 81% and the kinase still bound, per cent of control [9] was 40%. The kinase still bound, per cent of control [10] was 82%, the kinase still bound, per cent of control [11] was 100% and the kinase still bound, per cent of control [12] was 94%. The kinase still bound, per cent of control [13] was 77%, the kinase still bound, per cent of control [14] was 76% and the kinase still bound, per cent of control [15] was 93%. The kinase still bound, per cent of control [16] was 90%, the kinase still bound, per cent of control [17] was 90% and the Kd [18] was 4 µM. It also gave a kinase still bound, per cent of control ([18]; compound 1.0 µM) of 9.6%, a kinase still bound, per cent of control [19] of 95% and a kinase still bound, per cent of control [20] of 100%. For the same compound, the kinase still bound, per cent of control [21] was 96%, the kinase still bound, per cent of control [22] was 100% and the kinase still bound, per cent of control [23] was 100%. For the same compound, the kinase still bound, per cent of control [24] was 90%, the kinase still bound, per cent of control [25] was 100% and the kinase still bound, per cent of control [26] was 0%. It also gave a kinase still bound, per cent of control [27] of 99%, a kinase still bound, per cent of control [28] of 100% and a kinase still bound, per cent of control [29] of 93%. It also gave a kinase still bound, per cent of control [30] of 65%, a kinase still bound, per cent of control [31] of 13% and a kinase still bound, per cent of control [32] of 82%. It also gave a kinase still bound, per cent of control [33] of 100%, a kinase still bound, per cent of control [34] of 89% and a kinase still bound, per cent of control [35] of 68%. The kinase still bound, per cent of control [36] was 100%, the kinase still bound, per cent of control [37] was 91% and the kinase still bound, per cent of control [38] was 87%. It also gave a kinase still bound, per cent of control [39] of 95%, a kinase still bound, per cent of control [40] of 79% and a kinase still bound, per cent of control [41] of 97%. For the same compound, the kinase still bound, per cent of control [42] was 100% and the kinase still bound, per cent of control [43] was 100%.
